Results on 3 molecules are retold here after US11730830B2, “Topical application of nerve labeling dyes for image-guided surgery” (General Electric Company, priority 2016, dated 2023).

Data set [1] relates to rat nerve tissue sections. Briefly: Ex vivo labeling of cryosectioned nerve tissue. Particulars: 10 uM, 1 h, buffer with 10% Cremophor EL and 65% rat serum in PBS. From the text:
Various nerves were harvested from male Sprague Dawley rats. Tissue was fixed by perfusion and post-fixed with 10% neutral buffered formalin. Following post-fixation, tissue was cryoprotected in a 20% sucrose solution made in phosphate buffered saline (PBS). Nerves were then flash-frozen using methanol and dry ice in OCT media. In some cases, polyvinylidene fluoride membranes were used to help keep the nerves vertical in the OCT media. 5-10 micron section were sliced on a Leica microtome and stored in a −80° C. freezer prior to staining with agents (1)-(5).
For ex vivo staining of nerve sections, the slides were rinsed in PBS (3×5 min). Contrast agent (with a final concentration of 10 uM) was added onto the tissue in a buffer containing 10% Cremophor EL and 65% rat serum in PBS. The slides were incubated for 1 h in a dark, humid chamber after which they were washed with PBS (3×5 min), cover-slipped, and imaged using a custom filter cube (excitation filter: 387 nm with 11 nm band pass, 409 nm dichroic mirror; emission filter: 409 nm long pass). A buffer only control was also performed using exactly the same procedure to determine autofluorescence under the same settings.
Molecules that are related to the “push-pull” core structure of this class of compound would also benefit from this new method of application. The following is an example of ex vivo labeling of resected nerve tissue. In here, compounds used to stain cryo sectioned nerve tissue from rats.

The test system of another data set is nerves. Briefly: Intraoperative topical application at the surgical site, fluorescence nerve imaging in murine model. The format is in vivo, mouse. On the procedure:
(§1) Commercial small animal system: A fluorescence stereomicroscope (SteREO Lumar V12, Carl Zeiss Inc., Thornwood, N.Y.) equipped with a multispectral imaging camera (Nuance, CRI, Woburn, Mass.) was used with an exposure time of 1-5 s. Excitation of the flurophores was achieved using a filter centered at 406 nm with a 15 nm bandwidth. The fluorescence emission spectrum was recorded at wavelengths ranging from 420 to 720 nm at 10-nm increments using the attached multispectral camera. Alternatively, we had also used an emission filter with 550 long pass filter (in the absence of multispectral camera).
(§2) The laparoscope module comprises a standard 10 mm zero degree surgical laparoscope with 70 degree field of view, a 4 mm diameter, 1800 mm long laparoscope light guide, 35 mm video coupler, a compact 90 gram, 659×494 pixel GigE color camera (acA640-90gc Basler, Ahrensburg, Germany), and a 405 nm blocking filter (BLP01-405R Semrock, Rochester, N.Y.), which has >97% transmission from 420 to 800 nm. The ⅓″ format sensor provides high sensitivity with 7.4 μm pixel size and adequate field of view (40 degrees out of 70 degrees passed by the laparoscope). The video coupler interfaces with the eyepiece of the laparoscope providing an interchangeable set up for different types of laparoscopes. The 405 nm filter is secured directly in front of the image sensor with a c-mount retaining ring. The camera threads onto the video coupler directly.
Illumination for white light and fluorescence imaging is coupled into a single light guide using conventional optics. The light coupling module consists of two 32 mm aspheric lenses to collimate a white light LED and a 500 mW, 405 nm blue laser diode coupled into a multimode fiber with 400 μm diameter (Shanghai Laser & Optics Century Co., Ltd., China). The LED spectrum is filtered with a 450 nm long pass filter (NT49-819, Edmund Optics, Barrington, N.J.) to minimize excitation of the fluorescent agent, while maintaining the white light color spectrum. The LED and laser are combined with a 425 nm dichroic mirror (DMLP425R, Thorlabs). The combined illumination is coupled into the light guide with a third 32 mm aspheric lens (ACL4532, Thorlabs). The maximum irradiance from the LED and 405 nm laser are 2.0 mW/cm2 and 7.3 mW/cm2, respectively, at 25 mm from the tip of the laparoscope. Formulation, dosing, and kinetics for in vivo imaging following systemic IV injection of contrast agent in animal model:
Several different formulations were tested, including but not limited to: • Formulation 1: 10% PEG-300; 20% PG; 0.4% Carbopol; 69.6% water; • Formulation 2: 10% DMSO; 20% PEG-800; 20% PG; 0.1% Polysorbate-80; 49.9% Water; • Formulation 3: 30% PEG-300; 5% DMSO; 10% PVA; 55% water; • Formulation 4: 30% PEG-300; 10% PVA; 60% water; • Formulation 5: 30% PEG-300; 5% DMSO; 30% Pluronic F-68; 0.1% Polysorbate-80; 34.9% water; • Formulation 6: 20% PEG-300; 10% PG; 5% PVP; 5% Laurocapram; 60% water; • Formulation 7: 20% PEG-300; 10% PG; 5% PVP; 5% Laurocapram; 5% EtOH; 5% oleic acid; 10% Tween-80; 40% water; where: PVA=polyvinyl alcohol; PVP=polyvinyl pyrrolidone; and PEG=polyethylene glycol. […]
Topically administered nerve labeling dyes were also able to label nerves in a living animal. The fluorescence from nerves can be detected within minutes after intraoperative topical application. Representative white light and fluorescence images of topically administered FORMULA I(f) in a mouse are shown in FIG. 2A (white light) and FIG. 2B (fluorescence). […]

The test system of another data set is nerve. Briefly: Intraoperative topical application in porcine surgical model, real-time fluorescence imaging. Particulars: pig. The format is in vivo.
Text: as §2
Illumination for white light and fluorescence imaging is coupled into a single light guide using conventional optics. The light coupling module consists of two 32 mm aspheric lenses to collimate a white light LED and a 500 mW, 405 nm blue laser diode coupled into a multimode fiber with 400 μm diameter (Shanghai Laser & Optics Century Co., Ltd., China). The LED spectrum is filtered with a 450 nm long pass filter (NT49-819, Edmund Optics, Barrington, N.J.) to minimize excitation of the fluorescent agent, while maintaining the white light color spectrum. […]

Data set [2] can be described thus: Solubility check of the IV formulation. Particulars: propylene glycol, 2-HPβCD, water, pH 7.4; visual, centrifugation, buffer dissolution, dynamic light scattering. The format is physicochemical. The protocol:
(§3) For systemic administration by IV injection, the contrast agents were formulated using the following excipients: 5-15% propylene glycol (Fisher P355-1), 5-30% 2-hydroxypropyl-β-cyclodextrin (2-HPβCD, Sigma H5784) and 70-90% distilled/deionized water. In some cases, PEG-300 and DMSO were also added. The IV formulation was brought to a final pH of 7.4 using 1M of hydrochloric acid.
Specifically, IV formulation for FORMULA I(f) consisted of 80% distilled/deionized water, 10% 2-hydroxypropyl-β-cyclodextrin (2-HPβCD, Sigma H5784), and 10% propylene glycol (Fisher P355-1).

A further data set deals with sciatic nerve. In words: Kinetics of uptake and clearance after systemic IV injection, in vivo fluorescence imaging. On the set-up: species or system murine. Particulars: IV injection 16.6 mg/kg. On the procedure:
as §1, §3
Specifically, IV formulation for FORMULA I(f) consisted of 80% distilled/deionized water, 10% 2-hydroxypropyl-β-cyclodextrin (2-HPβCD, Sigma H5784), and 10% propylene glycol (Fisher P355-1). […]
A dose of 16.6 mg/kg of FORMULA I(f) was used for measuring the nerve fluorescence at 0.5, 1, 2, 3 and 4 hours after IV injection. […]

For the molecule `COc1cc(/C=C/c2ccc(S(C)(=O)=O)cc2)ccc1/C=C/c1ccc(N)cc1` [FORMULA I(e)], the “fluorescent staining of nerve tissue sections” value (shortened to “fluorescent staining”) in data set [1] is given as “most robust fluorescent staining”.
With `COc1cc(/C=C/c2ccc(C#N)cc2)ccc1/C=C/c1ccc(N)cc1` [FORMULA I(d)], the “nerve labeling by topical application” value with nerves (mouse, small animal commercial instrument) was “fluorescence nerve labeling”. In addition, the “fluorescent staining” value in data set [1] is on record as “most robust fluorescent staining”.
Turning to `COc1cc(/C=C/c2ccc(S(=O)(=O)N3CCN(CCO)CC3)cc2)ccc1/C=C/c1ccc(N)cc1` [FORMULA I(f)], in the data set with nerves (Formulation 6, incubated 3 minutes, irrigated with saline, mouse model), the “topical dose that effectively visualizes fluorescent nerves” value was found to be 0.01 mg. In addition, in the data set on nerves (after topical application, irrigation and excision, 15 micron sections, murine model), the “penetration into the nerve bundle, fluorescence microscopy of cryosectioned sciatic nerve” value is given as “donut-shaped myelin bundles are stained”. In the data set on nerves (topical about 0.1 milligrams in Formulation 4 versus IV about 16 mg/kg, multispectral imaging, murine model), the “fluorescence intensity from surrounding muscle tissue, topical versus systemic administration” value is listed as “lower across all the emission wavelengths”. For the same molecule, the “detection of very fine nerve fibers in a brachial plexus branch” value with nerves (topical in Formulation 4, 5 minutes, irrigated with sterile saline, dual-mode laparoscopic instrument, mouse) is “more readily detected under fluorescence guidance”. Moreover, in the data set on nerve (0.3 milligrams in Formulation 6, retroperitoneal area, 3 minutes, saline irrigation), the “nerve visibility under fluorescence imaging versus white light” value was “more pronounced under fluorescence imaging compared to white light imaging”. The “nerve visibility under fluorescence guidance versus white light” value in the data set with nerve (4 milligrams in Formulation 4, 5 minutes, warm saline irrigation) is listed as “highly detectable under fluorescence guidance”. Moreover, the “solubility in the IV formulation” value in data set [2] is “Complete solubility”. The “fluorescent staining” value in data set [1] is listed as “most robust fluorescent staining”. For the same molecule, in the data set on sciatic nerve (1 h post-injection, murine model), the best nerve-to-muscle ratio worked out at 3.7. Also, in the data set with sciatic nerve (measured at 0.5, 1, 2, 3 and 4 hours), the “time of maximum sciatic nerve and adipose tissue fluorescence” value is given as 1 h.
